The results in this text go back to patent publication US20260309717A1, “PROXIMITY INDUCING SYSTEM AND USES THEREOF” (SORBONNE UNIVERSITE, priority 2022, published 2026).

Each structure is given as a SMILES string.

Assay [1] has as its target T1, ^FIREmate and ^FIREtag (TOM20-ECFP-^FIREmate / mCherry-^FIREtag) (Halorhodospira halophila, UniProt P16113, A30V/C69G/D97P/F96I, form not given/G21E/G25R/K17N/M100R/M109L/Q41L/Q99S/S72T/T101G/V83A/Y94W/Y98T).
T1 construct: TOM20(1-34)-ECFP-FIREmate and mCherry-FIREtag in HeLa or U2OS cells
T1 sequence (P16113 1-114 A30V/C69G/D97P/F96I/G21E/G25R/K17N/M100R/M109L/Q41L/Q99S/S72T/T101G/V83A/Y94W/Y98T): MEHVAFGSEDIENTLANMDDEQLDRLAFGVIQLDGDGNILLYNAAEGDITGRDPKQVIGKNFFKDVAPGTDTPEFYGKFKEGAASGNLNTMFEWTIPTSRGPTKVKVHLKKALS
Briefly: Stability of the ternary assembly over time at mitochondria, time-lapse confocal microscopy, U2OS cells. It is filed as cell-based. Particulars: 10 μM; 1 image every 2 minutes. The protocol:
FIGS. 4A-D illustrate the recruitment over time of cytoplasmic proteins to mitochondria with the proximity inducing system described herein. (4A, C) HeLa cells co-expressing mCherry-^FIREtag and Tom20-ECFP-^FIREmate were treated with 10 μM HBR-2,5DM and imaged by time-lapse confocal microscopy at 1 image per 5 seconds. (4B, D) U2OS cells co-expressing mCherry-^FIREtag and Tom20-ECFP-^FIREmate were treated with 10 μM HBR-2,5DM and imaged by time-lapse confocal microscopy at 1 image every 2 minutes. FIG. 4A is a representative time-lapse of the HeLa cells from the addition of HBR-2,5DM at 0 sec (ex/em 488/508-570 nm). […] Scale bars are 20 μm. FIG. 4B is a representative time-lapse of the U2OS cells from the addition of HBR-2,5DM at 0 min (mCherry: ex/em 561/606-675 nm; FIRE: ex/em 488/508-570 nm; ECFP: ex/em 445/455-499 nm). […] Scale bars are 20 μm. FIG. 4C is a graph showing the temporal evolution of the FIRE signal detected in HeLa cells upon addition of HBR-2,5DM at 0 sec. […] FIG. 4D is a graph showing the temporal evolution of the FIRE signal detected in U2OS cells upon addition of HBR-2,5DM at 0 min. […]
The confocal micrographs were acquired on a Zeiss LSM 980 Laser Scanning Microscope equipped with a plan apochromat 63x/1.4 NA oil immersion objective. […] The images were analyzed using Icy (2.4.0.0) and Fiji (Image J). […]

The target in assay [2] is T2, mCherry-^FIREtag / ^FIREmate-ECFP-Cb5 (Halorhodospira halophila, UniProt P16113, A30V/C69G/D97P/F96I, form not given/G21E/G25R/K17N/M100R/M109L/Q41L/Q99S/S72T/T101G/V83A/Y94W/Y98T).
T2 construct: FIREmate-ECFP-Cb5(100-134) and mCherry-FIREtag in HeLa cells
T2 sequence (P16113 1-114 A30V/C69G/D97P/F96I/G21E/G25R/K17N/M100R/M109L/Q41L/Q99S/S72T/T101G/V83A/Y94W/Y98T): T1 sequence (P16113 1-114 A30V/C69G/D97P/F96I/G21E/G25R/K17N/M100R/M109L/Q41L/Q99S/S72T/T101G/V83A/Y94W/Y98T)
Nature of the assay: Recruitment of cytoplasmic protein to the endoplasmic reticulum, HeLa cells. It is filed as cell-based. Conditions: 10 μM. The protocol: FIGS. 7A-E illustrate the recruitment of cytoplasmic proteins to the endoplasmic reticulum with the proximity inducing system described herein. FIG. 7A is a representation of the experimental design wherein HeLa cells co-expressing mCherry-^FIREtag and ^FIREmate-ECFP-Cb5 were treated with 10 μM of match (either HBR-2,5DM or HMBR), and imaged by time-lapse confocal microscopy. FIGS. 7B-C are graphs showing the temporal evolution of the FIRE signal detected upon addition at 0 min of HBR-2,5DM (match1-7C) or HMBR (match2-7D). Data represents the mean values±SD of 17 cells from n=3 independent experiments (7B, D), or of 18 cells from n=3 independent experiments (7C, E). FIGS. 7D-E are sets of representative confocal micrographs of cells before (0 min) and after (5 min) addition of HBR-2,5DM (match1-7D) or HMBR (match2-7E) (mCherry: ex/em 561/606-675 nm; FIRE: ex/em 488/508-570 nm; ECFP: ex/em 445/455-499 nm). […] Scale bars are 20 μm.
The confocal micrographs were acquired on a Zeiss LSM 980 Laser Scanning Microscope equipped with a plan apochromat 63x/1.4 NA oil immersion objective. ZEN software was used to collect the data. The images were analyzed using Icy (2.4.0.0) and Fiji (Image J). In short, to track fluorescence signal in a specific organelle, a ROI (region of interest) was determined by masking the signal in the ECFP (Enhanced Cyan Fluorescent Protein) channel with the plug-in HK-means with the following parameters: intensity class equals 100, minimum object size (pixels or px) equals 500, maximum object size (px) equals 1500-3000. The signal intensity of the ROI was tracked over time for each channel by using plug-in Active Contours. The background signal was subtracted. Data were processed using GraphPad Prism v9.3.0.
To further evaluate the scope of the proximity inducing system described herein and show its versatility, ^FIREmate was anchored at the membrane of various organelles or cellular structures so that ^FIREmate faced the cytosol. ^FIREmate was thus fused: • to the N-terminus of the transmembrane domain (amino acid residues at positions 3131-3259) of Giantin for location at the cis-medial rims of the Golgi apparatus (FIG. 6A), • to the N-terminus of the transmembrane domain (amino acid residues at positions 100-134) of the cytochrome b5 (Cb5) for location at the endoplasmic reticulum membrane (FIG. 7A), and • to the C-terminus of the Lyn11 inner membrane targeting sequence for location at the plasma membrane (FIG. 8A).
For each construct, an ECFP was inserted between ^FIREmate and the other protein domain/sequence to monitor the localization of the resulting fusion protein (blue fluorescence). Each fusion protein was co-expressed in mammalian cells (HeLa cells or HEK293 cells as indicated) together with mCherry-^FIREtag (red fluorescence). […]

Turning to `Cc1cc(/C=C2\SC(=S)NC2=O)c(C)cc1O` [HBR-2,5DM, (Z)-5-(4-hydroxy-2,5-dimethylbenzylidene)-2-thioxo-1,3-thiazolidin-4-one], the “duration of fluorescence detected (stability of the ternary fluorescent assembly)” value in assay [1] is “more than 25 minutes”. In assay [2], the “FIRE signal at the endoplasmic reticulum” value is “simultaneous appearance of green fluorescence” and the “translocation of mCherry-^FIREtag to the endoplasmic reticulum” value was “rapid translocation of mCherry-^FIREtag to the organelle”.
